We go through 3 compounds from ChEMBL document CHEMBL4017480, “Discovery and optimization of selective FGFR4 inhibitors via scaffold hopping” (Bioorg Med Chem Lett, 2017).

Usually IC50 stands for the point on the concentration scale where inhibition reaches its midpoint. As usually defined, the inhibition is the relative decrease from the control value, in per cent.

Data set [1] addresses T1, Tyrosine-protein kinase ITK/TSK (Homo sapiens, UniProt Q08881).
T1 sequence (Q08881 whole entry): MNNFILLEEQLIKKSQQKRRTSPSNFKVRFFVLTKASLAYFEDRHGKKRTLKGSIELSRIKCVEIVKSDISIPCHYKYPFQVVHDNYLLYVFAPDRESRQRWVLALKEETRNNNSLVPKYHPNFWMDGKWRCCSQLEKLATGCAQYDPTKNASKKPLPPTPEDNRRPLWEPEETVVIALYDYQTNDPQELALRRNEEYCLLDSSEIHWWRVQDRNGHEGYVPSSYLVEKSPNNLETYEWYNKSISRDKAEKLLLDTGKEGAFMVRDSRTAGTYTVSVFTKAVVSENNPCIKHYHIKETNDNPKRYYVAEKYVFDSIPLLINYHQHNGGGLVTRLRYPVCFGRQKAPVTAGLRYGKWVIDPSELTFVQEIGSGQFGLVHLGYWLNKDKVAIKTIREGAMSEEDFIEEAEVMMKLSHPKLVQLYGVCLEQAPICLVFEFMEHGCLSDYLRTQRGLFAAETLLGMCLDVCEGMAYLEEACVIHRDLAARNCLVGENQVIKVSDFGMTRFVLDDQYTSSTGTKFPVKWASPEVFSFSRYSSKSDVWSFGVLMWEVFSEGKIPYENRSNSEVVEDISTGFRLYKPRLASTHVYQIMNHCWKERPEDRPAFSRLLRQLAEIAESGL
Nature of the data set: Inhibition of human ITK using myelin basic protein as substrate measured after 120 mins in presence of [gamma33P]ATP by P81 ion exchange chromatographic method.

The next data set deals with VEGFR2 (Homo sapiens, UniProt P35968). The data set is described as follows: Inhibition of human VEGFR2 at 10 uM using poly[Glu:Tyr] (4:1) as substrate measured after 120 mins in presence of [gamma33P]ATP by P81 ion exchange chromatographic method relative to control. The note with it: human VEGFR2 kinase, probe poly[Glu:Tyr] (4:1).
Data set [2] can be described thus: Intrinsic clearance in human liver microsomes at 1 uM measured after 60 mins in presence of NADPH by LC-MS/MS analysis. The class given is ADME, microsome. The note with it: read-out: CLH. In general terms: Liver microsomes are vesicles of endoplasmic reticulum, rich in cytochrome P450 enzymes.
Another data set addresses Cytochrome P450 2C9 (Homo sapiens, UniProt P11712). The data set is described as follows: Inhibition of CYP2C9 in human liver microsomes using diclofenac as substrate pretreated for 10 mins followed by substrate addition measured after 10 mins in presence of NADPH by LC-MS/MS method. The class given is ADME.
Data set [3] concerns the target T2, Tyrosine-protein kinase BTK (Homo sapiens, UniProt Q06187). The data set is described as follows: Inhibition of human BTK using KVEKIGEGTYGVVYK as substrate measured after 120 mins in presence of [gamma33P]ATP by P81 ion exchange chromatographic method.
The target of data set [4] is T3, Tyrosine-protein kinase JAK3 (Homo sapiens, UniProt P52333).
T3 sequence (P52333 whole entry): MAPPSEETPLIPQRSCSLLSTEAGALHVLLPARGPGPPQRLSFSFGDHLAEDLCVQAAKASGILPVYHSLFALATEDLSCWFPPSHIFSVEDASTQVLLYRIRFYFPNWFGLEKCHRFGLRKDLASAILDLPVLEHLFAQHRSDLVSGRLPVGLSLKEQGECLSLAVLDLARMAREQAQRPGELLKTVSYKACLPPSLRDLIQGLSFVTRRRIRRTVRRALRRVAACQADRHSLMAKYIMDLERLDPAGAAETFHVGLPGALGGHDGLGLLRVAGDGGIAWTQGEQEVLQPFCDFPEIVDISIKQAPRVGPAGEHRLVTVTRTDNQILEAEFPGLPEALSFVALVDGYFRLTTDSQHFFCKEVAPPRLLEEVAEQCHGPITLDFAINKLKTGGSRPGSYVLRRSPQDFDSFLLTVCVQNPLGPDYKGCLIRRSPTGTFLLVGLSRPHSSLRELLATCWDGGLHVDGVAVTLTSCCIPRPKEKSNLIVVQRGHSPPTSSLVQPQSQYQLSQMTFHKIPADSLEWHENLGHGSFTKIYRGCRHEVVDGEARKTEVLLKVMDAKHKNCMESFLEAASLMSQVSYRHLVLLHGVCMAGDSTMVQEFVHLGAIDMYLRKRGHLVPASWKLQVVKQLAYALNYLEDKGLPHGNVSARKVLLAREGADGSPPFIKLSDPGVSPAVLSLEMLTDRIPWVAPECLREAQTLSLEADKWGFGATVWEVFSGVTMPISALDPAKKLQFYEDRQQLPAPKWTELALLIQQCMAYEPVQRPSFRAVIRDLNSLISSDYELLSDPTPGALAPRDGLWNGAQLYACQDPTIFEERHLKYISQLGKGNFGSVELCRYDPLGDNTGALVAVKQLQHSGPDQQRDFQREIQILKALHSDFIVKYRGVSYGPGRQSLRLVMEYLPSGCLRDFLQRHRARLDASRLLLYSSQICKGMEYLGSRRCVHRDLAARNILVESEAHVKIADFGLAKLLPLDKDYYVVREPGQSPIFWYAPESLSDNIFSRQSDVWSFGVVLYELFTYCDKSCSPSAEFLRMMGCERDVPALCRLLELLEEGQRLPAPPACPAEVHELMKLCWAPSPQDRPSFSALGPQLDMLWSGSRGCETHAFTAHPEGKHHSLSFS
The data set is described as follows: Inhibition of human JAK3 using GEEEEYFELVKKKK as substrate measured after 120 mins in presence of [gamma33P]ATP by P81 ion exchange chromatographic method.

The target in data set [5] is T4, Tyrosine-protein kinase ITK/TSK (Homo sapiens) (UniProt Q08881).
T4 sequence (whole entry): T1 sequence (Q08881 whole entry)
Nature of the data set: Inhibition of human ITK at 10 uM using myelin basic protein as substrate measured after 120 mins in presence of [gamma33P]ATP by P81 ion exchange chromatographic method relative to control.

Data set [6] addresses T2, Tyrosine-protein kinase BTK. The data set is described as follows: Inhibition of human BTK at 10 uM using KVEKIGEGTYGVVYK as substrate measured after 120 mins in presence of [gamma33P]ATP by P81 ion exchange chromatographic method relative to control.
In data set [7] the target is Vascular endothelial growth factor receptor 2 (Homo sapiens, UniProt P35968). The data set is described as follows: Inhibition of human VEGFR2 using poly[Glu:Tyr] (4:1) as substrate measured after 120 mins in presence of [gamma33P]ATP by P81 ion exchange chromatographic method.
Vascular endothelial growth factor receptor 2, sequence (P35968 whole entry): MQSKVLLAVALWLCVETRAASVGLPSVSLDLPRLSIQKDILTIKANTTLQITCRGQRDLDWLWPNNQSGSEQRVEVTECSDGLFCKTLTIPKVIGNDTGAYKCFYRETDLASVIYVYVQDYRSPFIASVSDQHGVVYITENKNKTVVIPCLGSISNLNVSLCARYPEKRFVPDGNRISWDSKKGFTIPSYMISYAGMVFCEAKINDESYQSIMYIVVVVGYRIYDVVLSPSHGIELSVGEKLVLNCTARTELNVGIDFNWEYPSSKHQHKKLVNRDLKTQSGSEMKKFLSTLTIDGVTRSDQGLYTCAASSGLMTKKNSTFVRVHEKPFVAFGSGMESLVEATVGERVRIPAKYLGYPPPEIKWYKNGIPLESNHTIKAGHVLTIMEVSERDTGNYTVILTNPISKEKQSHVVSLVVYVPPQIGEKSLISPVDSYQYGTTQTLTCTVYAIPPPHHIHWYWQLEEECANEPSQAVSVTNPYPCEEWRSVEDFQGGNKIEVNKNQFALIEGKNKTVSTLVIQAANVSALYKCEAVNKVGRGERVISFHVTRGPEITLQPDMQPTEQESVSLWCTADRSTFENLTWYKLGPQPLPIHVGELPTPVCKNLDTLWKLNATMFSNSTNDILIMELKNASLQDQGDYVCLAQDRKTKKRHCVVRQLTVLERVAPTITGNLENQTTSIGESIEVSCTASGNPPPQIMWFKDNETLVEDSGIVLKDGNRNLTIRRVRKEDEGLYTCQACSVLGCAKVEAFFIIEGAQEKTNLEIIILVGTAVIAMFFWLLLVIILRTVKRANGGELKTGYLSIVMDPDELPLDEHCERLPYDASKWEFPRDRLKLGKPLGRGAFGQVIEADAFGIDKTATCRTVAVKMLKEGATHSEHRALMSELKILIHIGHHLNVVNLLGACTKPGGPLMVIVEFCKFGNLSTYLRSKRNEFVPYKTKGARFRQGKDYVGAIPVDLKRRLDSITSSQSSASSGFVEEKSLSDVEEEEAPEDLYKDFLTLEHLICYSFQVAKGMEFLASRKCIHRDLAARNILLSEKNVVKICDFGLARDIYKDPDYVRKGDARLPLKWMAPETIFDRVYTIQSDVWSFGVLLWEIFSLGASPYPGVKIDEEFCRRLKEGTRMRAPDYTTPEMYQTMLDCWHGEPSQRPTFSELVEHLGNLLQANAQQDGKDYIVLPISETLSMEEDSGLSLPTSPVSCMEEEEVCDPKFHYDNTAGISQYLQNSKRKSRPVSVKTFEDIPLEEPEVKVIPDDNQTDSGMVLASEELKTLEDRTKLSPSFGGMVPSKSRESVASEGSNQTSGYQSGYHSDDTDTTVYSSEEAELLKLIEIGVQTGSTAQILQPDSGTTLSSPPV

Cytochrome P450 2C9, sequence (P11712 whole entry): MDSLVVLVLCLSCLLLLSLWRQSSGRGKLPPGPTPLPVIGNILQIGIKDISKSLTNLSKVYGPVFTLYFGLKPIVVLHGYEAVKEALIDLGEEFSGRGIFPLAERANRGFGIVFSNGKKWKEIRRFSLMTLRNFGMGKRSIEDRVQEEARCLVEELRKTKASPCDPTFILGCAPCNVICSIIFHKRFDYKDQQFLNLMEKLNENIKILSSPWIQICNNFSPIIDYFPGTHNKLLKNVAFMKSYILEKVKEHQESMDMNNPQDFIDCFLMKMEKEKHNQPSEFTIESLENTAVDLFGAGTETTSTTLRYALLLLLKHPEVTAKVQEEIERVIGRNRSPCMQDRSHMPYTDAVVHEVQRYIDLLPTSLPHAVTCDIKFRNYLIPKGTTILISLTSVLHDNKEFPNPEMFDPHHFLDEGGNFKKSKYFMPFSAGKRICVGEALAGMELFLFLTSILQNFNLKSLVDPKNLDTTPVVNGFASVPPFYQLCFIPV
VEGFR2, sequence (P35968 whole entry): as the sequence (P35968 whole entry) above
T2 sequence (Q06187 whole entry): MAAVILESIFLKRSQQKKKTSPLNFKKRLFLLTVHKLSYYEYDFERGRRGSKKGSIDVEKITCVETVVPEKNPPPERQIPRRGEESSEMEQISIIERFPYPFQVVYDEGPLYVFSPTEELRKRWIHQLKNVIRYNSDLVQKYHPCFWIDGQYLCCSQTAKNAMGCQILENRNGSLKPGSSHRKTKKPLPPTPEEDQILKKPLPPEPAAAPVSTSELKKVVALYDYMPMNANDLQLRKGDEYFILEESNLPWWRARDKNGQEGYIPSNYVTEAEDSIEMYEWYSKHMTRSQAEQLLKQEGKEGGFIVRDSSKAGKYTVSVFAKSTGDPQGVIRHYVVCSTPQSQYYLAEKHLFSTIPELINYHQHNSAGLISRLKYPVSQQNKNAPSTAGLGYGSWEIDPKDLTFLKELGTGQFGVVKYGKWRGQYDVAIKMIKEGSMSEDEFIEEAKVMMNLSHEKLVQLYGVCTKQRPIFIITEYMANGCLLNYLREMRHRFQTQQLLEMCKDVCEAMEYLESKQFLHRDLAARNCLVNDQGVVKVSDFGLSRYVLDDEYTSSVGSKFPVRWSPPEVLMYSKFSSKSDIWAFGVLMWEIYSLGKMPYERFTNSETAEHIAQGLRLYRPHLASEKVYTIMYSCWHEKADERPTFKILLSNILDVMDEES

In the case of `C=CC(=O)Nc1cccc(C)c1Nc1ncc2cc(-c3c(Cl)c(OC)cc(OC)c3Cl)ccc2n1`, the concentration for half-maximal inhibition (IC50) in data set [1] was more than 10 µM; at Cytochrome P450 2C9 it was 0.9 µM; in [3], more than 10 µM; in data set [4] it was more than 10 µM; in data set [7] it was more than 10 µM. Also, at VEGFR2, the inhibition at 2 h, 10 µM turned out to be 23%. Also, in [2], the CLint scaled at 1 µM came out at 41 mL/min/kg. Further, the inhibition is 16% in data set [5] and -7% in data set [6].

`C=CC(=O)N[C@H]1COC[C@H]1Nc1ncc(OCc2c(F)c(OC)cc(OC)c2F)cn1`: the IC50 in data set [1] was more than 10 µM; on Cytochrome P450 2C9, 29.1 µM; in [3], more than 10 µM; in data set [4], more than 10 µM; in data set [7], more than 10 µM. The inhibition at 2 h, 10 µM at VEGFR2 is 11%. In data set [2], the CLint scaled at 1 µM came to 18 mL/min/kg. In addition, the inhibition in [5] was 0%; in data set [6], 14%.

As for `C=CC(=O)Nc1cccc(C)c1Nc1ncc(OCc2c(F)c(OC)cc(OC)c2F)cn1`, the IC50 was more than 10 µM in [1]; 3.7 µM at Cytochrome P450 2C9; more than 10 µM in [3]; more than 10 µM in data set [4]; more than 10 µM in data set [7]. On VEGFR2, the inhibition at 2 h, 10 µM is 19%. Further, the CLint scaled at 1 µM in [2] is 165 mL/min/kg. In addition, the inhibition turned out to be 9% in [5] and 7% in data set [6].
